The results in this text go back to US20240217963A1, “RECEPTOR-INTERACTING PROTEIN 1 INHIBITORS, PREPARATIONS, AND USES THEREOF” (SIRONAX LTD., priority 2021, published 2024).

pEC50: −log10 of the molar value.

The target in the experiment is T1, RIP1 (Homo sapiens, UniProt Q13546).
T1 sequence (Q13546 1-671): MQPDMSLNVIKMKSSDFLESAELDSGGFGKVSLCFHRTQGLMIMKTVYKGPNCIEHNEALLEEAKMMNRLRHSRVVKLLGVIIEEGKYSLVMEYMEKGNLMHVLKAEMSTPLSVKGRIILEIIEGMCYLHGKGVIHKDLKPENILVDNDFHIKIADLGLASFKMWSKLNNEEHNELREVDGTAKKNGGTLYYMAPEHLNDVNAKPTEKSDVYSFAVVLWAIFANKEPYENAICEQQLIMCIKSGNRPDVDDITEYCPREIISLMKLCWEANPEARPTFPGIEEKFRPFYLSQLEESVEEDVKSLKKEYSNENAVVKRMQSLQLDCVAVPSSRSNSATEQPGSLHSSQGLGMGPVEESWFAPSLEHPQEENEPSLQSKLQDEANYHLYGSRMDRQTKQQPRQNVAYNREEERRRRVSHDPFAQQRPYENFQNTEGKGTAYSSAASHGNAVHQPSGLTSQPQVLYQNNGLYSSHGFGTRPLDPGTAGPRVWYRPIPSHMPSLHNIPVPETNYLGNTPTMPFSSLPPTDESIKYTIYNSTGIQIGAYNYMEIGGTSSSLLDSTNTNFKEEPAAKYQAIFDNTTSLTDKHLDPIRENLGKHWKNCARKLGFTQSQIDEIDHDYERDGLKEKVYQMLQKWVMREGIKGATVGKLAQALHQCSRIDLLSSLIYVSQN
Description: Cellular RIP1 inhibitory activity: HT-29 necroptosis (TNFα/SMAC mimetic/zVAD-FMK) CellTiter-Glo viability assay. It is filed as cell-based. The settings on record: HT-29 cells, TNF-α 10 ng/ml + SMAC mimetic 6 μM + zVAD-FMK 10 μM, 20 hours, geometric mean, read-out: EC50 Values of in vitro Cellular RIP1 Inhibitory Activity.
In the case of `Cc1cnn(C)c1-c1nc(N2CCC(C(=O)N[C@@H](CO)c3ccccc3)CC2)ncc1F` [Compound 35, (R)-1-(4-(1,4-dimethyl-1H-pyrazol-5-yl)-5-fluoropyrimidin-2-yl)-N-(2-hydroxy-1-phenylethyl)piperidine-4-carboxamide], the pEC50 is 7.00 to 10.00.
On to `Cc1cnn(C)c1-c1nc(N2CCC(C(=O)N(C)Cc3cc(F)cc(F)c3F)CC2)ncc1F` [Compound 66, 1-(4-(1,4-dimethyl-1H-pyrazol-5-yl)-5-fluoropyrimidin-2-yl)-N-methyl-N-(2,3,5-trifluorobenzyl)piperidine-4-carboxamide], for which the pEC50 is 7.00 to 10.00.
Regarding `Cc1nc(C)n(-c2nc(N3CCC(F)(C(=O)N(O)Cc4cc(F)cc(F)c4)CC3)ncc2F)n1` [Compound 14, N-(3,5-difluorobenzyl)-1-(4-(3,5-dimethyl-1H-1,2,4-triazol-1-yl)-5-fluoropyrimidin-2-yl)-4-fluoro-N-hydroxypiperidine-4-carboxamide], the pEC50 is 7.00 to 10.00.
As to `Cc1cnn(C)c1-c1nc(N2CCC(C(=O)N(O)Cc3nccs3)CC2)ncc1F` [Compound 12, 1-(4-(1,4-dimethyl-1H-pyrazol-5-yl)-5-fluoropyrimidin-2-yl)-N-hydroxy-N-(thiazol-2-ylmethyl)piperidine-4-carboxamide], the pEC50 is 7.00 to 10.00.
As for `Cc1nc(C)n(-c2nc(N3CCC(C(=O)NCc4cc(F)cc(F)c4)CC3)ncc2F)n1` [Compound 2, N-(3,5-difluorobenzyl)-1-(4-(3,5-dimethyl-1H-1,2,4-triazol-1-yl)-5-fluoropyrimidin-2-yl)piperidine-4-carboxamide], the pEC50 is 7.00 to 10.00.
On to `Cc1cnn(C)c1-c1nc(N2CCC(C(=O)N(O)C(C)c3ccccc3)CC2)ncc1F` (stereo not shown) [Compound 34, 1-(4-(1,4-dimethyl-1H-pyrazol-5-yl)-5-fluoropyrimidin-2-yl)-N-hydroxy-N-(1-phenylethyl)piperidine-4-carboxamide], for which the pEC50 was 7.00 to 10.00.
Regarding `Cc1cnn(C)c1-c1nc(N2CCC(C(=O)N(O)Cc3ccnn3C)CC2)ncc1F` [Compound 27, 1-(4-(1,4-dimethyl-1H-pyrazol-5-yl)-5-fluoropyrimidin-2-yl)-N-hydroxy-N-((1-methyl-1H-pyrazol-5-yl)methyl)piperidine-4-carboxamide], the pEC50 is 6.00 to 7.00.
